Earlier results, collected in patent US20180169002A1, “Skin Rejuvenation and Defense Systems and Methods” (Maple Mountain Group, Inc., priority 2015, published 2018).

Details: compared with glycerin

## NC(=O)NCCO [Hydroxyethyl Urea, Hydroxyethyl urea]
  moisturization efficacy: comparable to the leading benchmark
